This note sets out measurements from ChEMBL document CHEMBL4715829, “Heterodimeric Rifampicin-Tobramycin conjugates break intrinsic resistance of Pseudomonas aeruginosa to doxycycline and chloramphenicol in vitro and in a Galleria mellonella in vivo model” (Eur J Med Chem, 2019).

The structures appear in SMILES notation. Active and inactive are the calls of the source. No cut-off for these calls is given here.

The subject of assay [1] is Pseudomonas aeruginosa. Briefly: Antibacterial activity against Pseudomonas aeruginosa 264-101354 assessed as reduction in bacterial growth by measuring chloramphenicol MIC at 4 ug/ml incubated for 18 hrs in presence of chloramphenicol by broth microdilution assay (reference value: 4096 ug/ml). The conditions noted are these: dose 4 µg/ml. In kind it is functional.
Assay [2] relates to Pseudomonas aeruginosa. Briefly: Antibacterial activity against Pseudomonas aeruginosa 262-101856 assessed as reduction in bacterial growth by measuring doxycycline MIC at 16 ug/ml incubated for 18 hrs in presence of doxycycline by broth microdilution assay (reference value: 1024 ug/ml). In kind it is functional. The settings on record: dose 16 µg/ml. On the technique in general: Dilution methods test growth across graded concentrations, often in twofold steps.

Assay [3] relates to Pseudomonas aeruginosa. As to the kind of experiment: Antibacterial activity against Pseudomonas aeruginosa 100036 assessed as potentiation of doxycycline-induced antibacterial activity by measuring doxycycline MIC at 9.8 uM incubated for 18 hrs in presence of doxycycline by broth microdilution assay (reference value: 64 ug/ml). In kind it is functional.
Assay [4] deals with Pseudomonas aeruginosa. Briefly: Antibacterial activity against Pseudomonas aeruginosa 259-96918 assessed as potentiation of doxycycline-induced antibacterial activity by measuring doxycycline MIC at 9.8 uM incubated for 18 hrs in presence of doxycycline by broth microdilution assay (reference value: 32 ug/ml). Type of assay: functional.
In assay [5] the test system is Pseudomonas aeruginosa. As to the kind of experiment: Antibacterial activity against Pseudomonas aeruginosa 259-96918 assessed as potentiation of chloramphenicol-induced antibacterial activity by measuring chloramphenicol MIC at 9.8 uM incubated for 18 hrs in presence of chloramphenicol by broth microdilution assay (reference value: 1024 ug/ml). In kind it is functional.

Assay [6] relates to Pseudomonas aeruginosa. Briefly: Antibacterial activity against Pseudomonas aeruginosa 260-97103 assessed as potentiation of doxycycline-induced antibacterial activity by measuring doxycycline MIC at 9.8 uM incubated for 18 hrs in presence of doxycycline by broth microdilution assay (reference value: 16 ug/ml). In kind it is functional.
Assay [7] deals with Pseudomonas aeruginosa. Briefly: Antibacterial activity against Pseudomonas aeruginosa 100036 assessed as fractional inhibitory concentration incubated for 18 hrs in presence of tigecycline by broth microdilution assay. Type of assay: functional.
The test system of assay [8] is Pseudomonas aeruginosa. Briefly: Antibacterial activity against Pseudomonas aeruginosa 262-101856 assessed as fractional inhibitory concentration incubated for 18 hrs in presence of rifampicin by broth microdilution assay. Type of assay: functional.
For assay [9], the system named is Pseudomonas aeruginosa. Briefly: Antibacterial activity against Pseudomonas aeruginosa 91433 assessed as fractional inhibitory concentration incubated for 18 hrs in presence of tigecycline by broth microdilution assay. Type of assay: functional.
Assay [10] deals with Pseudomonas aeruginosa. As to the kind of experiment: Antibacterial activity against Pseudomonas aeruginosa 100036 assessed as fractional inhibitory concentration index incubated for 18 hrs in presence of tigecycline by broth microdilution assay. Type of assay: functional.
For assay [11], the system named is Pseudomonas aeruginosa. As to the kind of experiment: Antibacterial activity against Pseudomonas aeruginosa 259-96918 assessed as fractional inhibitory concentration index incubated for 18 hrs in presence of minocycline by broth microdilution assay. Type of assay: functional.
Assay [12] concerns Pseudomonas aeruginosa. As to the kind of experiment: Antibacterial activity against Pseudomonas aeruginosa 262-101856 assessed as fractional inhibitory concentration index incubated for 18 hrs in presence of tigecycline by broth microdilution assay. In kind it is functional.
In assay [13] the test system is Pseudomonas aeruginosa. Briefly: Potentiation of doxycycycline-induced bactericidal activity against Pseudomonas aeruginosa PAO1 assessed as reduction in bacterial colonies at 4.9 to 9.8 microM incubated for upto 24 hrs in LB medium in presence of doxycycline followed by plating on agar plate and measured after 20 hrs by time-kill assay. Type of assay: functional, organism-based. The settings on record: dose 4.9-9.8 µM, time hrs <=44.

Assay [14] relates to Pseudomonas aeruginosa. Briefly: Potentiation of chloramphenicol-induced bactericidal activity against Pseudomonas aeruginosa PAO1 assessed as reduction in bacterial colonies at 4.9 to 9.8 microM incubated for upto 24 hrs in LB medium in presence of chloramphenicol followed by plating on agar plate and measured after 20 hrs by time-kill assay. Type of assay: functional, organism-based. The settings on record: dose 4.9-9.8 µM, time hrs <=44.

Assay [15] deals with Pseudomonas aeruginosa. Briefly: Antibacterial activity against Pseudomonas aeruginosa 260-97103 infected in Galleria mellonella larvae assessed as survival of larvae at 75 mg/kg treated at 3 hrs post-infection in presence of chloramphenicol and measured after 24 hrs relative to control. In kind it is functional.
Assay [16] concerns Pseudomonas aeruginosa. Briefly: Potentiation of doxycycline-induced antibacterial activity against Pseudomonas aeruginosa 264-101354 assessed as fold change in doxycycline MIC at 9.8 uM incubated for 18 hrs in presence of doxycycline by broth microdilution assay relative to control. In kind it is functional.
In assay [17] the test system is Pseudomonas aeruginosa. As to the kind of experiment: Potentiation of doxycycline-induced antibacterial activity against Pseudomonas aeruginosa 101243 assessed as fold change in doxycycline MIC at 9.8 uM incubated for 18 hrs in presence of doxycycline by broth microdilution assay relative to control. Type of assay: functional.
For assay [18], the system named is Pseudomonas aeruginosa. Briefly: Potentiation of doxycycline-induced antibacterial activity against Pseudomonas aeruginosa 101885 assessed as fold change in doxycycline MIC at 9.8 uM incubated for 18 hrs in presence of doxycycline by broth microdilution assay relative to control. In kind it is functional.
In assay [19] the test system is Enterobacter cloacae. As to the kind of experiment: Potentiation of doxycycline-induced antibacterial activity against Enterobacter cloacae ATCC 117029 assessed as fold change in doxycycline MIC at 9.8 uM incubated for 18 hrs in presence of doxycycline by broth microdilution assay relative to control. In kind it is functional.
In assay [20] the test system is Pseudomonas aeruginosa. Briefly: Antibacterial activity against Pseudomonas aeruginosa 100036 assessed as potentiation of chloramphenicol-induced antibacterial activity by measuring chloramphenicol MIC at 7.6 uM incubated for 18 hrs in presence of chloramphenicol by broth microdilution assay (reference value: 1024 ug/ml). In kind it is functional.
For assay [21], the system named is Pseudomonas aeruginosa. As to the kind of experiment: Antibacterial activity against Pseudomonas aeruginosa 264-101354 assessed as potentiation of doxycycline-induced antibacterial activity by measuring doxycycline MIC at 7.6 uM incubated for 18 hrs in presence of doxycycline by broth microdilution assay (reference value: 64 ug/ml). Type of assay: functional.

Assay [22] relates to Pseudomonas aeruginosa. Briefly: Antibacterial activity against Pseudomonas aeruginosa 262-101856 assessed as potentiation of chloramphenicol-induced antibacterial activity by measuring chloramphenicol MIC at 7.6 uM incubated for 18 hrs in presence of chloramphenicol by broth microdilution assay (reference value: 2048 ug/ml). Type of assay: functional.
The subject of assay [23] is Pseudomonas aeruginosa. As to the kind of experiment: Antibacterial activity against Pseudomonas aeruginosa 101885 assessed as potentiation of chloramphenicol-induced antibacterial activity by measuring chloramphenicol MIC at 7.6 uM incubated for 18 hrs in presence of chloramphenicol by broth microdilution assay (reference value: 512 ug/ml). In kind it is functional.

Assay [24] deals with Pseudomonas aeruginosa. As to the kind of experiment: Antibacterial activity against Pseudomonas aeruginosa 91433 assessed as potentiation of doxycycline-induced antibacterial activity by measuring doxycycline MIC at 7.6 uM incubated for 18 hrs in presence of doxycycline by broth microdilution assay (reference value: 32 ug/ml). In kind it is functional.
Assay [25] deals with Pseudomonas aeruginosa. As to the kind of experiment: Potentiation of doxycycline-induced antibacterial activity against Pseudomonas aeruginosa 91433 assessed as fold change in doxycycline MIC at 7.6 uM incubated for 18 hrs in presence of doxycycline by broth microdilution assay relative to control. Type of assay: functional.
Assay [26] concerns Pseudomonas aeruginosa. As to the kind of experiment: Potentiation of doxycycline-induced antibacterial activity against Pseudomonas aeruginosa 114228 assessed as fold change in doxycycline MIC at 7.6 uM incubated for 18 hrs in presence of doxycycline by broth microdilution assay relative to control. In kind it is functional.
For assay [27], the system named is Enterobacter cloacae. As to the kind of experiment: Potentiation of doxycycline-induced antibacterial activity against Enterobacter cloacae ATCC 117029 assessed as fold change in doxycycline MIC at 7.6 uM incubated for 18 hrs in presence of doxycycline by broth microdilution assay relative to control. Type of assay: functional.
Assay [28] deals with Pseudomonas aeruginosa. Briefly: Antibacterial activity against Pseudomonas aeruginosa 260-97103 assessed as reduction in bacterial growth by measuring chloramphenicol MIC at 8 ug/ml incubated for 18 hrs in presence of chloramphenicol by broth microdilution assay (reference value: 128 ug/ml). Type of assay: functional. The conditions noted are these: dose 8 µg/ml.

Turning to `CO[C@H]1/C=C/O[C@@]2(C)Oc3c(C)c(O)c4c(O)c(c(/C=N/N5CCN(C)CC5)c(O)c4c3C2=O)NC(=O)/C(C)=C\C=C\[C@H](C)[C@H](O)[C@@H](C)[C@@H](O)[C@@H](C)[C@H](OC(C)=O)[C@@H]1C` [RIFAMPIN], the MIC turned out to be 4100 µg/mL in the assay with Pseudomonas aeruginosa [1] and 1020 µg/mL in the assay on Pseudomonas aeruginosa [2].

As for `CO[C@H]1/C=C/O[C@@]2(C)Oc3c(C)c(O)c4c(O)c(c(/C=N/N5CCN(Cc6cn(CCCCCCO[C@@H]7[C@@H](O[C@H]8O[C@H](CO)[C@@H](O)[C@H](N)[C@H]8O)[C@H](N)C[C@H](N)[C@H]7O[C@H]7O[C@H](CN)[C@@H](O)C[C@H]7N)nn6)CC5)c(O)c4c3C2=O)NC(=O)/C(C)=C\C=C\[C@H](C)[C@H](O)[C@@H](C)[C@@H](O)[C@@H](C)[C@H](OC(C)=O)[C@@H]1C.Cl.Cl.Cl.Cl.Cl`, the MIC was found to be 1 µg/mL in the assay on Pseudomonas aeruginosa [3], 1 µg/mL with Pseudomonas aeruginosa [4], 256 µg/mL in the assay on Pseudomonas aeruginosa [5] and 0.125 µg/mL in the assay with Pseudomonas aeruginosa [6]. For the same compound, the FIC in the assay with Pseudomonas aeruginosa [7] is 0.004; in the assay with Pseudomonas aeruginosa [8], under 0.008; in the assay on Pseudomonas aeruginosa [9], under 0.125. For the same compound, the “fractional inhibitory concentration index (FICI)” value with Pseudomonas aeruginosa [10] is 0.13; in the assay with Pseudomonas aeruginosa [11], under 0.16; in the assay on Pseudomonas aeruginosa [12], under 0.19. For the same compound, the result with Pseudomonas aeruginosa [13] and with Pseudomonas aeruginosa [14] was Active. The survival at 75 mg/kg with Pseudomonas aeruginosa [15] stood at 10%. Moreover, the “fold change (FC)” value in the assay with Pseudomonas aeruginosa [16] came out at 4; in the assay with Pseudomonas aeruginosa [17], 4; with Pseudomonas aeruginosa [18], 4; in the assay with Enterobacter cloacae [19], 0.

Regarding `CO[C@H]1/C=C/O[C@@]2(C)Oc3c(C)c(O)c4c(O)c(c(/C=N/N5CCN(Cc6cn(CCCCCCCCCCCCO[C@@H]7[C@@H](O[C@H]8O[C@H](CO)[C@@H](O)[C@H](N)[C@H]8O)[C@H](N)C[C@H](N)[C@H]7O[C@H]7O[C@H](CN)[C@@H](O)C[C@H]7N)nn6)CC5)c(O)c4c3C2=O)NC(=O)/C(C)=C\C=C\[C@H](C)[C@H](O)[C@@H](C)[C@@H](O)[C@@H](C)[C@H](OC(C)=O)[C@@H]1C.O=C(O)C(F)(F)F.O=C(O)C(F)(F)F.O=C(O)C(F)(F)F.O=C(O)C(F)(F)F.O=C(O)C(F)(F)F`, the MIC in the assay on Pseudomonas aeruginosa [20] was determined as 4 µg/mL; with Pseudomonas aeruginosa [21], 1 µg/mL; in the assay on Pseudomonas aeruginosa [22], 128 µg/mL; with Pseudomonas aeruginosa [23], 4 µg/mL; with Pseudomonas aeruginosa [24], 0.25 µg/mL. The “fold change (FC)” value in the assay with Pseudomonas aeruginosa [25] is recorded as 4; in the assay with Pseudomonas aeruginosa [26] it was 4; with Enterobacter cloacae [27], 0.

For the compound `NC[C@H]1O[C@H](O[C@H]2[C@H](O)[C@@H](O[C@H]3O[C@H](CO)[C@@H](O)[C@H](N)[C@H]3O)[C@H](N)C[C@@H]2N)[C@H](N)C[C@@H]1O` [TOBRAMYCIN], in the assay on Pseudomonas aeruginosa [28], the MIC came to 128 µg/mL.

Usually MIC stands for the lowest concentration that inhibits growth of the organism.
